In patent US8048638B2, “Biomarkers of liver injury” (priority 2005, dated 2011):

How the values were obtained:
Rats [1] = experiment: Plasma ASS and ALT accumulation after carbon tetrachloride injection (chlorinated hydrocarbon liver injury); assay type: in vivo, rat; settings: for Plasma ASS increase relative to control (FIG. 30A): rat model; for Plasma ALT accumulation / Plasma ASS increase compared to controls: rats; for Plasma ASS increase compared to controls: 0.5 ml/kg CCL4 in vegetable oil
Protocol: Rats (n=6) were injected with 0.5 ml/kg of carbon tetrachloride (CCL4) in vegetable oil. Plasma arginosuccinate synthetase (ASS) and alanine transaminase (ALT) accumulation was measured 1 hr and 24 hr after injection. ASS increased over 15-fold compared to controls after 1 hr and over 50-fold compared to controls after 24 hr (p<0.0001), as shown in FIG. 30A.

Rats [2] = settings: Western blot
Protocol: The analysis shown in Table 1, is performed by Western blot using antibody available through various sources. Typically, 25 μg protein are loaded with two identical sets of 5 samples, separated in 4-20% polyacrylamide gel mini-slabs, and transferred onto PVDF membrane. The membrane is cut in 2 pieces, blocked, probed with two different antibodies, visualized using ECL Plus Kit (Pierce, Inc) and scanned. The membranes are stripped using stripping buffer and re-probed with other two antibody. After visualizing the bands with EDCL Plus Kit and scanning, membranes are stripped again, probed with aII-spectrin antibody and developed using alkaline phosphatase detection method. For accurate assessment of molecular mass of developed proteins, two sets of protein standards are added and developed simultaneously (Magic Markers, Invitrogen, Inc).
Blood is collected from rat heart at the end of experimental procedures. Plasma is obtained from K-EDTA preserved blood by centrifugation. 20 μl of plasma or serum is mixed with 180 μl of RIPA buffer (with proteases inhibitors), vortexed, incubated on ice for 30 min and centrifuged. Supernatants are removed, aliquots mixed with sample buffer 1:1, heated and loaded onto gel.

Rats [3] = experiment: Serum ASS, CPS-1, SULT2A1 and ALT levels after repeated MDMA injections (Ecstasy liver injury); assay type: in vivo, rat; settings: for Serum ASS compared to control serum levels / Serum SULT2A1 compared to control serum levels: i.p.; for Serum ASS compared to control serum levels: 10 mg/kg injections at 1.5 hr intervals
Protocol: Serum arginosuccinate synthetase (ASS), carbamoylphosphate synthase-1 (CPS-1) and sulfur transferase isoform A1 (SULT2A1) levels were measured after repeated injections of 10 mg/kg of methylenedioxyacetamine (MDMA) at 1.5 hr intervals.

Compound: ClC(Cl)(Cl)Cl [carbon tetrachloride]
- Plasma ASS increase relative to control (FIG. 30A) (Rats [1]; 1 hr after injection): 15 times
- Plasma ASS increase relative to control (FIG. 30A) (Rats [1]; 24 hr post injection): 50 times
- Plasma ALT accumulation (Rats [1]; 0.5 ml/kg CCL4, 1 hr after injection): did not increase significantly
- Plasma ALT accumulation (Rats [1]; 0.5 ml/kg CCL4, 24 hr after injection, p=0.041): significant increase
- Plasma ASS increase compared to controls (Rats [1]; 1 hr after injection): over 15 fold
- Plasma ASS increase compared to controls (Rats [1]; 24 hr after injection, p<0.0001): over 50 fold

Compound: CCO [alcohol]
- ALT in plasma (Rats [2]; chronic alcohol rats): increased
- GST-BB in plasma (Rats [2]; rats chronically treated with alcohol): significant increase
- Intact ASS protein (46 kDa) in plasma (Rats [2]; rats with chronic alcoholic administration): absent

Compound: CNC(C)Cc1ccc2c(c1)OCO2 (stereo not drawn) [MDMA, methylenedioxyacetamine]
- Serum ASS compared to control serum levels (Rats [3]; total 20 mg/kg, p<0.01): significant increase
- Serum ASS compared to control serum levels (Rats [3]; total 40 mg/kg, p<0.001): significant increase
- Serum SULT2A1 compared to control serum levels (Rats [3]; total 20 mg/kg, p<0.001): significant increase
- Serum SULT2A1 compared to control serum levels (Rats [3]; total 40 mg/kg, p<0.0001): significant increase
- Serum carbamoylphosphate synthase-1 (CPS-1) levels (Rats [3]; repeated i.p. injection, total 40 mg/kg, 24 hr after last injection, PAGE): increased levels
- Alanine transferase (ALT) (Rats [3]; repeated i.p. injections of 10 mg/kg): No increase
